Laboratory results: ChEMBL document CHEMBL4433235, “Discovery of piperazic acid peptide deformylase inhibitors with in vivo activity for respiratory tract and skin infections” (Bioorg Med Chem Lett, 2019)
In brackets after ≈: the same amount, converted by molar mass.

Tests used:
Peptide deformylase [1] = molecular target: T1, Peptide deformylase (Staphylococcus aureus, UniProt P68826); experiment: Inhibition of Staphylococcus aureus PDF by absorbance detection assay
T1 sequence (P68826 whole entry): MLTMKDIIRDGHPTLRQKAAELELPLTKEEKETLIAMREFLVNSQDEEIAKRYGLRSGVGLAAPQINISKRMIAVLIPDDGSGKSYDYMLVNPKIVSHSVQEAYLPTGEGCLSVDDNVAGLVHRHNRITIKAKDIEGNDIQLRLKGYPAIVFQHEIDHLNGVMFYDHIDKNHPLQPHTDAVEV

[2] = Inhibition of Haemophilus influenzae PDF by absorbance detection assay
[3] = Inhibition of Streptococcus pneumoniae PDF by absorbance detection assay
Staphylococcus aureus [4] = experiment: Antimicrobial activity against Staphylococcus aureus Oxford; assay type: functional
Haemophilus influenzae [5] = experiment: Antimicrobial activity against Haemophilus influenzae Q1; assay type: functional
Streptococcus pneumoniae [6] = experiment: Antimicrobial activity against Streptococcus pneumoniae 1629; assay type: functional
[7] = Chromatographic hydrophobicity index, log D of compound at pH 7.4; assay type: physicochemical; conditions: buffer
[8] = Solubility of compound by chemiluminescent nitrogen detection assay; assay type: physicochemical
Staphylococcus aureus [9] = experiment: Antimicrobial activity against Staphylococcus aureus; assay type: functional
Haemophilus influenzae [10] = experiment: Antimicrobial activity against Haemophilus influenzae; assay type: functional
Streptococcus pneumoniae [11] = experiment: Antimicrobial activity against Streptococcus pneumoniae; assay type: functional
Peptide deformylase [12] = molecular target: T1, Peptide deformylase; experiment: Inhibition of Staphylococcus aureus PDF by fluorescence detection assay
[13] = Inhibition of Haemophilus influenzae PDF by fluorescence detection assay
[14] = Inhibition of Streptococcus pneumoniae PDF by fluorescence detection assay
[15] = Half life in rat at 3 mg/kg, iv; assay type: ADME, organism-based; conditions: in vivo
[16] = Clearance in rat at 3 mg/kg, iv; assay type: ADME, organism-based; conditions: in vivo
[17] = Volume of distribution at steady state in rat at 3 mg/kg, iv; assay type: ADME, organism-based; conditions: in vivo, read-out: Vdss
[18] = AUC in rat at 3 mg/kg, iv; assay type: ADME, organism-based; conditions: in vivo
[19] = Half life in rat at 5 mg/kg, po; assay type: ADME, organism-based; conditions: in vivo
[20] = Cmax in rat at 5 mg/kg, po; assay type: ADME, organism-based; set-up: dose 5 mg/kg, route oral; conditions: in vivo
[21] = AUC in rat at 5 mg/kg, po; assay type: ADME, organism-based; conditions: in vivo
[22] = Oral bioavailability in rat at 5 mg/kg; assay type: ADME, organism-based; conditions: in vivo
Streptococcus pneumoniae [23] = experiment: Antimicrobial activity against Streptococcus pneumoniae Ery-2; assay type: functional
Streptococcus pneumoniae [24] = experiment: Antimicrobial activity against Streptococcus pneumoniae Ery-2 infected in respiratory tract infection rat model assessed as log reduction in bacterial CFU at 150 mg/kg, po BID dosed 1 hr post infection and measured for 96 hrs; assay type: functional
Streptococcus pneumoniae [25] = experiment: Antimicrobial activity against Streptococcus pneumoniae Ery-2 infected in respiratory tract infection rat model assessed as log reduction in bacterial CFU at 300 mg/kg, po BID dosed 1 hr post infection and measured for 96 hrs; assay type: functional

SMILES	IC50 (Peptide deformylase [1]) [nM]	IC50 [2] [nM]	IC50 [3] [nM]	MIC (Staphylococcus aureus [4]) [µg/mL]	MIC (Haemophilus influenzae [5]) [µg/mL]	MIC (Streptococcus pneumoniae [6]) [µg/mL]	CHI [7]	solubility kinetic [8] [µM]	further results
O=CN(O)C[C@@H](CC1CCCC1)C(=O)N1NCCC[C@H]1C(=O)Nc1ccccc1	5	2	1	4 (≈ 9.94 µM)	1 (≈ 2.48 µM)	2 (≈ 4.97 µM)	4.82	> 534	–
O=CN(O)C[C@@H](CC1CCCC1)C(=O)N1NCCC[C@H]1C(=O)N1CCCCC1	6	8	2	1 (≈ 2.53 µM)	2 (≈ 5.07 µM)	4 (≈ 10.1 µM)	3.3	> 739	–
CCCNC(=O)[C@@H]1CCCNN1C(=O)[C@H](CC1CCCC1)CN(O)C=O	11	5	3	4 (≈ 10.9 µM)	0.5 (≈ 1.36 µM)	4 (≈ 10.9 µM)	3.19	> 544	–
CN(C)c1cncc(NC(=O)[C@@H]2CCCNN2C(=O)[C@H](CC2CCCC2)CN(O)C=O)n1	–	–	–	1 (≈ 2.23 µM)	1 (≈ 2.23 µM)	1 (≈ 2.23 µM)	3.65	> 515	IC50 (Peptide deformylase [12]): 5 nM; IC50 [13]: 16 nM; IC50 [14]: 0.79 nM; half-life [15]: 7 h; clearance [16]: 73 mL/min/kg; Vd [17]: 13 L/kg; AUC [18]: 685 ng·h/mL; half-life [19]: 10 h; Cmax [20]: 53 ng/mL; AUC [21]: 169 ng·h/mL; bioavailability [22]: 15%
CN1CCN(c2cncc(NC(=O)[C@@H]3CCCNN3C(=O)[C@H](CC3CCCC3)CN(O)C=O)n2)CC1	–	–	–	16 (≈ 31.8 µM)	2 (≈ 3.98 µM)	4 (≈ 7.96 µM)	2.57	> 359	IC50 (Peptide deformylase [12]): 10 nM; IC50 [14]: 2 nM
CCc1nnc(NC(=O)[C@@H]2CCCNN2C(=O)[C@H](CC2CCCC2)CN(O)C=O)s1	1	2	0.4	1 (≈ 2.28 µM)	1 (≈ 2.28 µM)	1 (≈ 2.28 µM)	3.38	530 (≈ 232 µg/mL)	MIC90 (Staphylococcus aureus [9]): 2 µg/mL (≈ 4.56 µM); MIC90 (Haemophilus influenzae [10]): 2 µg/mL (≈ 4.56 µM); MIC90 (Streptococcus pneumoniae [11]): 1 µg/mL (≈ 2.28 µM); half-life [15]: 6.7 h; clearance [16]: 20 mL/min/kg; Vd [17]: 4 L/kg; AUC [18]: 2140 ng·h/mL; half-life [19]: 4.7 h; Cmax [20]: 711 ng/mL; AUC [21]: 1580 ng·h/mL; bioavailability [22]: 36%; MIC (Streptococcus pneumoniae [23]): 0.5 µg/mL (≈ 1.14 µM); Activity (Streptococcus pneumoniae [24]): 0.8 log10CFU/ml; Activity (Streptococcus pneumoniae [25]): 1.7 log10CFU/ml
Cc1nc(NC(=O)[C@@H]2CCCNN2C(=O)[C@H](CC2CCCC2)CN(O)C=O)sc1C	0.63	1	0.2	0.25 (≈ 0.571 µM)	2 (≈ 4.57 µM)	1 (≈ 2.29 µM)	4.29	381 (≈ 167 µg/mL)	MIC90 (Staphylococcus aureus [9]): 0.5 µg/mL (≈ 1.14 µM); MIC90 (Haemophilus influenzae [10]): 2 µg/mL (≈ 4.57 µM); MIC90 (Streptococcus pneumoniae [11]): 0.5 µg/mL (≈ 1.14 µM); half-life [15]: 1.1 h; clearance [16]: 49 mL/min/kg; Vd [17]: 1.6 L/kg; AUC [18]: 1030 ng·h/mL; half-life [19]: 3.8 h; Cmax [20]: 349 ng/mL; AUC [21]: 700 ng·h/mL; bioavailability [22]: 41%

More lines, main results first:

IC50 (Peptide deformylase [1]) [nM]	IC50 [2] [nM]	IC50 [3] [nM]	MIC (Staphylococcus aureus [4]) [µg/mL]	MIC (Haemophilus influenzae [5]) [µg/mL]	MIC (Streptococcus pneumoniae [6]) [µg/mL]	CHI [7]	solubility kinetic [8] [µM]	SMILES	further results
2	6	0.3	2 (≈ 4.94 µM)	1 (≈ 2.47 µM)	2 (≈ 4.94 µM)	2.7	> 464	O=CN(O)C[C@@H](CC1CCCC1)C(=O)N1NCCC[C@H]1C(=O)Nc1ccncn1	MIC90 (Staphylococcus aureus [9]): 1 µg/mL (≈ 2.47 µM); MIC90 (Haemophilus influenzae [10]): 2 µg/mL (≈ 4.94 µM); MIC90 (Streptococcus pneumoniae [11]): 2 µg/mL (≈ 4.94 µM)
–	–	–	8 (≈ 19.2 µM)	2 (≈ 4.79 µM)	8 (≈ 19.2 µM)	2.94	483 (≈ 202 µg/mL)	Cc1cccnc1NC(=O)[C@@H]1CCCNN1C(=O)[C@H](CC1CCCC1)CN(O)C=O	IC50 (Peptide deformylase [12]): 16 nM; IC50 [13]: 79 nM; IC50 [14]: 10 nM
2	4	0.6	1 (≈ 2.47 µM)	0.5 (≈ 1.24 µM)	4 (≈ 9.89 µM)	2.69	303 (≈ 123 µg/mL)	O=CN(O)C[C@@H](CC1CCCC1)C(=O)N1NCCC[C@H]1C(=O)Nc1cccnn1	–
1	3	0.3	2 (≈ 4.94 µM)	0.25 (≈ 0.618 µM)	8 (≈ 19.8 µM)	2.87	> 586	O=CN(O)C[C@@H](CC1CCCC1)C(=O)N1NCCC[C@H]1C(=O)Nc1cnccn1	–
